Laboratory results from patent publication US5489592A, “3,4-dihydro-4-oxo-3-(2-propenyl)-1-phthalazineacetic acids and derivatives, their preparations and medicines containing them” (Lipha, Lyonnaise Industrielle Pharmaceutique, priority 1991, dated 1996).

Legend:
[1] = tested on: level of sorbitol in the crystallins; test: In vivo study: reduction in the accumulation of sorbitol in streptozotocin-diabetic rats; parameters: species or system male Wistar rats; details: Rattus norvegicus, oral, 4, 30 and 52 h after streptozotocin (60 mg/kg i.v.), 50% reduction, confidence interval in parentheses
Procedure: 2) In vivo study: reduction in the accumulation of sorbitol
Male Wistar rats, weighing 200 to 250 g, are made diabetic by intravenous injection of streptozotocin (60 mg/kg). They then receive an oral treatment of the products to be tested, in the form of a 10% suspension in gum arabic, 4 hours, 30 hours and 52 hours after injection of streptozotocin. Eighteen hours after the last oral treatment, the rats are stunned and decapitated and their crystallins are then withdrawn. After extraction, the level of sorbitol in the crystallins is measured according to the enzymatic method described by H. U. Bergmeyer (Methods of Enzymatic Analysis, edited by H. U. Bergmeyer, Academic Press, New York, 3, p. 1323, 1974).
Various doses of products are tested and the inhibitions are calculated with respect to a control batch of diabetic rats. The dose necessary for a 50% reduction in the level of sorbitol is then evaluated by linear interpolation.

[2] = target: T1, aldose reductase (Rattus norvegicus, UniProt P07943); test: In vitro study: inhibition of aldose reductase; format: biochemical, male Wistar rats; details: rat crystallin enzyme, NADPH, L-glyceraldehyde, 340 nm; confidence interval in parentheses
T1 construct: The aldose reductase used is obtained from crystallins from male Wistar rats; from tissue; host or cells: eye lens of male Wistar rats, enzymatic extract
Procedure: 1) In vitro study: inhibition of aldose reductase
The aldose reductase used is obtained from crystallins from male Wistar rats according to a modification of the method of S. Hayman et al. (Journal of Biological Chemistry, 240, p. 877, 1965). The enzymatic extract is diluted in a phosphate buffer in the presence of NADPH and of various concentrations of the products to be tested. The reaction is triggered by L-glyceraldehyde and the rate of reaction is measured by monitoring the disappearance of NADPH by spectrophotometry at 340 nm. The inhibition of the rate of reaction is calculated for each concentration of products and then the concentration necessary for a 50% inhibition (IC50) is evaluated by linear interpolation.

SMILES | IC50 [2] [nM] | ED50 [1] [mg/kg]
O=C(O)Cc1nn(C/C=C/c2c(F)ccc(F)c2F)c(=O)c2ccccc12 [Example B38, (E) -3-[3-(2,3,6-trifluorophenyl)-2-propenyl]-3,4-dihydro-4-oxo-1-phthalazineacetic acid] | 8.9 | 4.7
O=C(O)Cc1nn(C/C=C/c2c(F)ccc(Br)c2F)c(=O)c2ccccc12 [Example B40, (E) -3-[3-(3-bromo-2,6-difluorophenyl)-2-propenyl]-3,4-dihydro-4-oxo-1-phthalazineacetic acid] | 8.2 | 6.1
O=C(O)Cc1nn(C/C=C/c2c(F)ccc(C(F)(F)F)c2F)c(=O)c2ccccc12 [Example B41, (E) -3-[3-[2,6-difluoro-3-(trifluoromethyl)phenyl]-2-propenyl]-3,4-dihydro-4-oxo-1-phthalazineacetic acid] | 8.6 | 4.4
O=C(O)Cc1nn(C/C=C/c2c(F)c(F)cc(F)c2F)c(=O)c2ccccc12 [Example B43, (E) -3-[3-(2,3,5,6-tetrafluorophenyl)-2-propenyl]-3,4-dihydro-4-oxo-1-phthalazineacetic acid] | 9.6 | 5.8

Second part, led by results:

IC50 [2] [nM] | SMILES | ED50 [1] [mg/kg]
10.2 | O=C(O)Cc1nn(C/C=C/c2cccc(C(F)(F)F)c2F)c(=O)c2ccccc12 [Example B1, (E) -3-[3-[2-fluoro-3-(trifluoromethyl)phenyl]-2-propenyl]-3,4-dihydro-4-oxo-1-phthalazineacetic acid] | 4.8
8.4 | O=C(O)Cc1nn(C/C(F)=C/c2cccc(C(F)(F)F)c2)c(=O)c2ccccc12 [Example B49, (Z) -3-[2-fluoro-3-[3-(trifluoromethyl)phenyl]-2-propenyl]-3,4-dihydro-4-oxo-1-phthalazineacetic acid] | 8.2
